16 compounds from US11897862B2 (Gilead Sciences, Inc., priority 2022, dated 2024) can be followed below.

As usually defined, the Dmax is the largest share of the target that was removed.

Some results are limits rather than exact numbers.

One assay has as its target T1, IKZF1 (Homo sapiens, UniProt Q13422+Q96SW2).
T1 construct: expressed in transfected cells
The assay can be described thus: HEK293 HiBiT in vitro degradation of IKZF1. Type of assay: cell-based. The note with it: for DC50 / IKZF1 Dmax: HEK293 HiBiT; for DC50: 18-24 hr incubation, normalized to DMSO control, read-out: IKZF1 EC50; for IKZF1 Dmax / Dmax: maximum degradation at the highest concentration tested; for Dmax: HEK293, HEK293 HiBiT. Put shortly:
(§1)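 Flp-In T-REx HEK293 pools stably expressing C-terminal HiBiT-tagged IKZF1, IKZF2 or SALL4 (single-copy, Tet-On), induced overnight with […] doxycycline. Cells exposed to serially diluted compounds for 18-24 hr at 37° C. Nano-Glo lytic luminescence gave EC50 and Dmax.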
A general note: With HiBiT, luminescence reflects the tagged protein that the partner subunit can reach.

The next assay concerns the target IKZF2 (Homo sapiens, UniProt Q96SW2+Q9UKS7). The assay can be described thus: HEK293 HiBiT in vitro degradation of IKZF2. Type of assay: cell-based. More on the design: expressed in transfected cells. The note with it: for DC50 / IKZF2 Dmax: HEK293 HiBiT; for DC50: 18-24 hr incubation, normalized to DMSO control, read-out: IKZF2 EC50; for IKZF2 Dmax / Dmax: maximum degradation at the highest concentration tested; for Dmax: HEK293, HEK293 HiBiT. Put shortly: as §1

Chain of IKZF2 (Q9UKS7 1-500 isoform Q9UKS7-2): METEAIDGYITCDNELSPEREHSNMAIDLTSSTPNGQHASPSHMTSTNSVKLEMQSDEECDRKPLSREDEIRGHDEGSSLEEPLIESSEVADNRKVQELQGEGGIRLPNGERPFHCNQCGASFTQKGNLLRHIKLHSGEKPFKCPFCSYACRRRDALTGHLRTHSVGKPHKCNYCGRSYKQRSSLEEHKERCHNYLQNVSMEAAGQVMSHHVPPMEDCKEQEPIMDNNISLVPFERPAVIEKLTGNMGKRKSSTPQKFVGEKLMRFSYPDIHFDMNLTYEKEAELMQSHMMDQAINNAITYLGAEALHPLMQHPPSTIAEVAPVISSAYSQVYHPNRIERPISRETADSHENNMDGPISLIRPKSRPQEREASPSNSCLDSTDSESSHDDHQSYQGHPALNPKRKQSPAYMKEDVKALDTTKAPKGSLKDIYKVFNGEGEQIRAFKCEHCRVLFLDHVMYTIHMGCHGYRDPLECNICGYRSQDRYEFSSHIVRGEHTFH
Chain of IKZF2 (Q96SW2 whole entry): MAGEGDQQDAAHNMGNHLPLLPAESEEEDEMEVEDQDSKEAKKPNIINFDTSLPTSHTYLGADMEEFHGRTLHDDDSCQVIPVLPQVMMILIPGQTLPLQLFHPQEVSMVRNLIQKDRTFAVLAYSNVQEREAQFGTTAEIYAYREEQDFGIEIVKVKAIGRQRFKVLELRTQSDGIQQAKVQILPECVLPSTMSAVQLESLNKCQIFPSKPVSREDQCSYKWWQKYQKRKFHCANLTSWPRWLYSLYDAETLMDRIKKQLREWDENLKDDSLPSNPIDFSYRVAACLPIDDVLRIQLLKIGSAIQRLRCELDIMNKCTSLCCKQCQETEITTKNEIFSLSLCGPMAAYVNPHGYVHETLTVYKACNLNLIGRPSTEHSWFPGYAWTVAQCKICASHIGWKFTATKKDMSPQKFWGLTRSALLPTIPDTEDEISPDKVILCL
Chain of IKZF2 (Q16531 whole entry partner): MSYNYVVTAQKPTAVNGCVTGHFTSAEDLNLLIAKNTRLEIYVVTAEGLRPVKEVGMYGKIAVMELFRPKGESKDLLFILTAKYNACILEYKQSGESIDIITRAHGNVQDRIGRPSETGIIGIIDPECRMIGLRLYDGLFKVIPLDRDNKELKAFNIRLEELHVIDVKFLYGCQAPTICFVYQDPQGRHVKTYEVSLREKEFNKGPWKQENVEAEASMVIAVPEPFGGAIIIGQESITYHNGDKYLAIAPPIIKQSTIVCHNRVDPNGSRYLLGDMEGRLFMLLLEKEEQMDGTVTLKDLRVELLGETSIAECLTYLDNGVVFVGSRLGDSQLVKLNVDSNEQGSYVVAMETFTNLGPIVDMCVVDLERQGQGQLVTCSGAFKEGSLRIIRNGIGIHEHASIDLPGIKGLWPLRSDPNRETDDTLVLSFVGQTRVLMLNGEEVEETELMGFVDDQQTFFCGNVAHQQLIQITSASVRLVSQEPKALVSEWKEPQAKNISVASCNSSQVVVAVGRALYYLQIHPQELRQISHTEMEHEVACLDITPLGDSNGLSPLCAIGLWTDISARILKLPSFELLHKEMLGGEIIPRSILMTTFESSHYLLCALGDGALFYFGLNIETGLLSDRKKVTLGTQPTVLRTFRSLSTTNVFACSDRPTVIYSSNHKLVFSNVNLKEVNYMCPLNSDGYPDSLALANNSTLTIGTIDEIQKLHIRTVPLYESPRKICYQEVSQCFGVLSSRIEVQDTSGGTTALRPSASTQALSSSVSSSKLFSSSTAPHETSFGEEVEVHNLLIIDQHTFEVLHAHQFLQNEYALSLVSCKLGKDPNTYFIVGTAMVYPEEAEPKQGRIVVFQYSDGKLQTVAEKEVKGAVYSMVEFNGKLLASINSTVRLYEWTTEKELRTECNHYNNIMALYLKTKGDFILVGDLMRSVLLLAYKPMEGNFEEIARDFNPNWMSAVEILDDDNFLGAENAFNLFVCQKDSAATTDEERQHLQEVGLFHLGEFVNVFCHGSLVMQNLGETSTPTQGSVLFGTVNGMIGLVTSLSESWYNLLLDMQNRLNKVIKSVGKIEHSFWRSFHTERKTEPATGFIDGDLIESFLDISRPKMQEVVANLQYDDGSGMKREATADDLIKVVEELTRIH
T1 sequence (Q13422 whole entry): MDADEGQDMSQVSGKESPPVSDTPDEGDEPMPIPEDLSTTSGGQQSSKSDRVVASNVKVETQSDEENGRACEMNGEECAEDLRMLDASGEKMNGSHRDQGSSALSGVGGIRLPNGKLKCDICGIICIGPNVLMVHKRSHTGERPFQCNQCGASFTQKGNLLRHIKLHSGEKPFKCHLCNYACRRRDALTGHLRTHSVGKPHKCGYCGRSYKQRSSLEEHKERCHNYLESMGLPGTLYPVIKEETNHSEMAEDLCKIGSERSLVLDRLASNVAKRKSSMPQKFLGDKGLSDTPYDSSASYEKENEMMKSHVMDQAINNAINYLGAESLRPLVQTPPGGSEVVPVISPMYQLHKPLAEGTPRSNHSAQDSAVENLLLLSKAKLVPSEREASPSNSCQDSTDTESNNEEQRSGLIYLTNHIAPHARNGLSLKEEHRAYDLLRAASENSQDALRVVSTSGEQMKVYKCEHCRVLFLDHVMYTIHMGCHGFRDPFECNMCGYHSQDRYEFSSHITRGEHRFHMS
T1 sequence (Q96SW2 whole entry): as the sequence (Q96SW2 whole entry) above
T1 sequence (Q16531 whole entry partner): as the sequence (Q16531 whole entry partner) above

With `O=C1CCC(N2Cc3cc(C[C@H]4CCCC[C@@H]4NC4CCC5(CCO5)CC4)ccc3C2=O)C(=O)N1` (stereo partly drawn) [Example 172], on IKZF1, the DC50 was found to be 203 nM and the “IKZF1 Dmax” value is given as 28%. Further, on IKZF2, the DC50 was 19 nM and the “IKZF2 Dmax” value amounted to 98%.
In the case of `O=C1CCC(N2Cc3cc(C[C@H]4CCCC[C@@H]4NCC45CC(c6ccccc6)(C4)C5(F)F)ccc3C2=O)C(=O)N1` (stereo partly drawn) [Example 174], at IKZF1, the DC50 was over 1000 nM. For the same compound, at IKZF2, the Dmax turned out to be 86% and the DC50 is 67 nM.
Regarding `O=C1CCC(N2Cc3cc(C[C@H]4CCCC[C@@H]4NC4CCOc5ccccc54)ccc3C2=O)C(=O)N1` (stereo partly drawn) [Example 175], at IKZF1, the Dmax stood at 46% and the DC50 turned out to be 189 nM. On IKZF2, the Dmax was found to be 96% and the DC50 was determined as 24 nM.
Turning to `CCC(C)N[C@H]1CCCC[C@@H]1Cc1ccc2c(c1)CN(C1CCC(=O)NC1=O)C2=O` (stereo partly drawn) [Example 176], the DC50 was over 1000 nM at IKZF1 and 3 nM at IKZF2. In addition, the Dmax on IKZF2 turned out to be 96%.
`O=C1CCC(N2Cc3cc(C[C@H]4CCCC[C@@H]4NC4Cc5ccccc5C4)ccc3C2=O)C(=O)N1` (stereo partly drawn) [Example 177]: at IKZF1, the Dmax stood at 42% and the DC50 was determined as 78 nM. On IKZF2, the Dmax is 97% and the DC50 was 4 nM.
Regarding `O=C1CCC(N2Cc3cc(C[C@H]4CCC[C@@H]4NC4CCC(F)(F)CC4)ccc3C2=O)C(=O)N1` (stereo partly drawn) [Example 178], the results for the DC50 at IKZF1 and on IKZF2 were over 1000 nM and 168 nM, respectively. The compound further gave a Dmax at IKZF2 of 72%.
Turning to `O=C1CCC(N2Cc3cc(C[C@H]4OCCC[C@@H]4NC4CCCCC4)ccc3C2=O)C(=O)N1` (stereo partly drawn) [Example 179], the DC50 is over 10000 nM at IKZF1 and 16 nM at IKZF2. Also, the “IKZF2 Dmax” value on IKZF2 is recorded as 88%.
With `CC(C)N[C@H]1CCCO[C@@H]1Cc1ccc2c(c1)CN(C1CCC(=O)NC1=O)C2=O` (stereo partly drawn) [Example 180], the results for the DC50 at IKZF1 and on IKZF2 were over 1000 nM and 39 nM, respectively. The same compound yielded a Dmax on IKZF2 of 85%.
On to `CC(C)(CCN[C@H]1CCCC[C@@H]1Cc1ccc2c(c1)CN(C1CCC(=O)NC1=O)C2=O)C(F)(F)F` (stereo partly drawn) [Example 182], for which, on IKZF1, the Dmax turned out to be 34% and the DC50 is 43 nM. Also, on IKZF2, the Dmax is 94% and the DC50 worked out at 9 nM.
In the case of `O=C1CCC(N2Cc3cc(C[C@H]4CCCC[C@@H]4NC4CCCCC4(F)F)ccc3C2=O)C(=O)N1` (stereo partly drawn) [Example 183], the DC50 on IKZF1 is over 1000 nM. Besides, on IKZF2, the DC50 turned out to be 91 nM and the “IKZF2 Dmax” value stood at 81%.
For the compound `O=C1CCC(N2Cc3cc(C[C@H]4CCCC[C@@H]4NC4CC5CCC(C4)O5)ccc3C2=O)C(=O)N1` (stereo partly drawn) [Example 184], on IKZF1, the DC50 came out at 56 nM and the “IKZF1 Dmax” value amounted to 30%. Further, on IKZF2, the DC50 was found to be 3 nM and the “IKZF2 Dmax” value was found to be 97%.
Regarding `CC(C)CC(C)N[C@H]1CCCC[C@@H]1Cc1ccc2c(c1)CN(C1CCC(=O)NC1=O)C2=O` (stereo partly drawn) [Example 185], on IKZF1, the DC50 is over 1000 nM. For the same compound, on IKZF2, the greatest degradation seen (Dmax) was found to be 98% and the DC50 amounted to 6 nM.
On to `O=C1CCC(N2Cc3c(ccc(C[C@H]4CCCC[C@@H]4NCC4COC4)c3F)C2=O)C(=O)N1` (stereo partly drawn) [Example 186], for which, on IKZF1, the DC50 is 88 nM and the “IKZF1 Dmax” value is 28%. Further, at IKZF2, the DC50 was 8 nM and the “IKZF2 Dmax” value was found to be 98%.
As to `O=C1CCC(N2Cc3c(ccc(C[C@H]4CCCC[C@@H]4NCC4CCOCC4)c3F)C2=O)C(=O)N1` (stereo partly drawn) [Example 187], at IKZF1, the DC50 amounted to 78 nM and the “IKZF1 Dmax” value was found to be 37%. In addition, on IKZF2, the DC50 was found to be 8 nM and the “IKZF2 Dmax” value stood at 96%.
For `O=C1CCC(N2Cc3c(ccc(C[C@H]4CCCC[C@@H]4NC4CCOCC4)c3F)C2=O)C(=O)N1` (stereo partly drawn) [Example 188], at IKZF1, the DC50 stood at 44 nM and the “IKZF1 Dmax” value came to 34%. On IKZF2, the DC50 was 2 nM and the “IKZF2 Dmax” value was found to be 98%.
As for `O=C1CCC(N2Cc3c(ccc(C[C@H]4CCCC[C@@H]4NC4CCOC4)c3F)C2=O)C(=O)N1` (stereo partly drawn) [Example 189], at IKZF1, the DC50 was found to be 39 nM and the “IKZF1 Dmax” value worked out at 46%. In addition, at IKZF2, the DC50 turned out to be 2 nM and the “IKZF2 Dmax” value stood at 97%.
